Measured values published in the supplement of paper PMC10307832.

How the values were obtained:
Assay in all cases: relative viability (nuclei count vs DMSO), 5 days (fraction); higher = more cells survive
Adavosertib + Bortezomib = compound: C=CCn1c(=O)c2cnc(Nc3ccc(N4CCN(C)CC4)cc3)nc2n1-c1cccc(C(C)(C)O)n1 [Adavosertib] + CC(C)C[C@H](NC(=O)[C@H](Cc1ccccc1)NC(=O)c1cnccn1)B(O)O [Bortezomib] (partner 0.002 µM)
Method in brief: (§1)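 After 5 days of treatment, lung cancer cells in 1536-well plates were fixed and stained in a single step (final 0.05% Triton X-100, 1% formaldehyde, 1 ug/ml Hoechst) and their nuclei counted on 4× images. Treatment had been applied by pin tool the day after seeding as one drug alone or as a fixed anchor-drug dose with five library-drug doses (not always all listed) in √10 steps. Relative viability is the nuclei count of treated wells divided by that of vehicle wells, and values are medians of duplicate plates.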

Adavosertib + Dasatinib = compound: C=CCn1c(=O)c2cnc(Nc3ccc(N4CCN(C)CC4)cc3)nc2n1-c1cccc(C(C)(C)O)n1 [Adavosertib] + Cc1nc(Nc2ncc(C(=O)Nc3c(C)cccc3Cl)s2)cc(N2CCN(CCO)CC2)n1 [Dasatinib] (partner 0.075 µM)
Method in brief: as §1

Nelarabine + Trametinib = compound: COc1nc(N)nc2c1ncn2[C@@H]1O[C@H](CO)[C@@H](O)[C@@H]1O [Nelarabine] + CC(=O)Nc1cccc(-n2c(=O)n(C3CC3)c(=O)c3c(Nc4ccc(I)cc4F)n(C)c(=O)c(C)c32)c1 [Trametinib] (partner 0.02 µM)
Method in brief: as §1

Nelarabine + Foretinib = compound: COc1nc(N)nc2c1ncn2[C@@H]1O[C@H](CO)[C@@H](O)[C@@H]1O [Nelarabine] + COc1cc2c(Oc3ccc(NC(=O)C4(C(=O)Nc5ccc(F)cc5)CC4)cc3F)ccnc2cc1OCCCN1CCOCC1 [Foretinib] (partner 0.25 µM)
Method in brief: as §1

NCI-H441
relative viability (Adavosertib + Bortezomib; first compound 0.01 µM): 0.38
relative viability (Adavosertib + Bortezomib; first compound 0.03162 µM): 0.761
relative viability (Adavosertib + Bortezomib; first compound 0.1 µM): 0.414
relative viability (Adavosertib + Bortezomib; first compound 0.3162 µM): 0.354
relative viability (Adavosertib + Dasatinib; first compound 0.01 µM): 0.5
relative viability (Adavosertib + Dasatinib; first compound 0.03162 µM): 0.511
relative viability (Adavosertib + Dasatinib; first compound 0.1 µM): 0.575
relative viability (Adavosertib + Dasatinib; first compound 0.3162 µM): 0.396
relative viability (Nelarabine + Trametinib; first compound 0.01 µM): 0.432
relative viability (Nelarabine + Trametinib; first compound 0.03162 µM): 0.482
relative viability (Nelarabine + Trametinib; first compound 0.1 µM): 0.469
relative viability (Nelarabine + Trametinib; first compound 0.3162 µM): 0.446
relative viability (Nelarabine + Trametinib; first compound 1 µM): 0.466
relative viability (Nelarabine + Foretinib; first compound 0.01 µM): 0.98
relative viability (Nelarabine + Foretinib; first compound 0.03162 µM): 0.977
relative viability (Nelarabine + Foretinib; first compound 0.1 µM): 0.918
relative viability (Nelarabine + Foretinib; first compound 0.3162 µM): 0.933
relative viability (Nelarabine + Foretinib; first compound 1 µM): 0.943
